Laboratory results from article PMC6433685, “Histone deacetylase inhibitor LMK235 attenuates vascular constriction and aortic remodelling in hypertension” (Journal of Cellular and Molecular Medicine, 2019).

Key:
SHRs = conditions: cited from earlier work
[1] = tested on: angiotensin II‐induced hypertensive mice; conditions: cited from earlier work; for elevated BP: angiotensin II-induced hypertensive mice
rat mesenteric arteries = experiment: Isometric tension: relaxation of U46619-induced contraction in rat mesenteric artery rings; design: species or system Sprague‐Dawley rats; conditions: mesenteric artery rings pretreated with 100 μmol/L for 30 minutes
From the text: Male Sprague‐Dawley rats were purchased from Orient Bio (Gyeonggi‐do, South Korea). The thoracic aortas and mesenteric arteries were excised and immersed in an ice‐cold, modified Krebs solution composed of NaCl (115 mmol/L), KCl (4.7 mmol/L), CaCl2 (2.5 mmol/L), MgCl2 (1.2 mmol/L), NaHCO3 (25 mmol/L), KH2PO4 (1.2 mmol/L) and dextrose (10 mmol/L). Mesenteric arteries are secondary branches of the main mesenteric trunk. The aortas and mesenteric arteries were cleaned by removing adherent connective tissue, soaked in the Krebs‐bicarbonate solution and cut into four ring segments (3.5 mm in length), as described previously.14 Some rings were denuded of endothelium by gently rubbing the internal surface with the edge of the forceps. Each aortic ring was suspended in a water‐jacketed organ bath (6 mL) maintained at 37°C and aerated with a mixture of 95% O2 and 5% CO2. Each ring was connected to an isometric force transducer (Danish Myo Technology, Skejbyparken, Aarhus N, Denmark). Rings were stretched to an optimal resting tension of 2.0 g, which was maintained throughout the experiment. Each ring was equilibrated in the organ bath solution for 90 minutes before the experiment involving the contractile response to 50 mmol/L of KCl addition. […]

HUVECs = experiment: Nitric oxide production in HUVECs (DAF-FM DA fluorescence); format: cell-based, Human; conditions: 250 μmol/L, 24 h
Experimental: A10 vascular smooth muscle cells (VSMCs) were incubated with Dulbecco's modified Eagle medium (DMEM) with 4500 mg/L glucose containing 10% foetal bovine serum (FBS). Passages were carried out every 2 or 3 days. VSMCs were maintained in DMEM in the presence of 10% FBS with low glucose (1000 mg/L). Human umbilical vein endothelial cells (HUVECs) were obtained from Gibco (Waltham, MA, USA). HUVECs were grown in an endothelial cell basal medium (EBM) with EGM‐2 bullet kit (Lonza, Walkersville, MD) and maintained at 37°C under 5% CO2. Cells were cultured for 5‐7 passages.
We used a nitric oxide‐sensitive fluorescence probe, 4‐amino‐5‐methylamino‐2′,7′‐difluorescein diacetate (DAF‐FM DA, Cayman), for nitric oxide detection. HUVECs were seeded on coverslips in 12‐well plates (1.5 × 10^5/mL). Cells, serum‐starved with EBM for 16 hour, were treated with LMK235 (1 μmol/L) or L‐NAME (250 μmol/L) for 24 hour and incubated with DAF‐FM DA (2.5 μmol/L) for 45 minutes. Next, the cells were fixed with 70% ethanol for 45 minutes and mounted using Prolog Gold antifade reagent and DAPI (Invitrogen, USA).

[2] = tested on: bisphenol A‐induced hypertension; design: method as in PMID 25103225; conditions: cited from earlier work

## CC(/C=C/C(=O)NO)=C\[C@@H](C)C(=O)c1ccc(N(C)C)cc1 [TSA, Trichostatin A]
SHRs; SHRs
  augmented angiotensin II-induced contraction in the mesenteric artery: reversed
  systolic BP: decreased systolic BP

## CCCC(CCC)C(=O)O [valproic acid]
SHRs; SHRs or DOCA-salt-induced hypertensive rats
  BP: attenuated BP
SHRs; SHRs
  cardiac AT1 mRNA levels: reduced

## Cn1c(/C=C/C(=O)NO)ccc1/C=C/C(=O)c1cccc(F)c1 [MC1568]
[1]; angiotensin II-induced hypertensive mice and VSMCs
  vascular hypertrophy and hyperplasia: attenuates
[1]
  elevated BP: lowered elevated BP

## COC(=O)[C@@H](N)CCCNC(N)=N[N+](=O)[O-] [L‐NAME, reference compound]
Rat mesenteric arteries
  LMK235-induced vascular relaxation: inhibited vascular relaxation
HUVECs
  LMK235-induced increase of nitric oxide production: reduced

## COc1ccc(S(=O)(=O)N(CCO)c2ccccc2CN(C)C/C=C/c2ccc(Cl)cc2)cc1 [KN 93]
[2]
  bisphenol A-induced hypertension: inhibit

## CN1CCc2c(c3ccccc3n2Cc2ccc(C(=O)NO)cc2)C1 [tubastatin A]
[1]
  elevated BP: not
